Values after ≈ are worked out from the molar mass of the structure shown.
Assays:
Type in all cases: cell-based
[1] = system: Trichophyton mentagrophytes; assay: MIC in Sabouraud broth (broth dilution); details: 120 h, strain A 9870, five days at 28°, read-out: Minimum Inhibitory Concentration (MIC)
From the text: (§1) The antifungal activity of some of the compounds of Formula I against a number of human and animal pathogenic fungi is given in Table I for either a liquid medium (Sabouraud broth) or an agar medium (Sabouraud broth plus 1% ionagar). Two-fold serial dilutions were made with Sabouraud's liquid medium from stock solutions of the test compounds, usually in dimethyl sulfoxide, N,N-dimethylformamide or water. The Minimum Inhibitory Concentrations (MIC's), which were considered to be the minimum concentrations of the test compounds in micrograms per milliliter which prevent grossly detectable growth of the test organisms, were then determined after inoculation of the medicated broths with the test organisms, and incubation at the appropriate temperature and for the appropriate time interval. Candida species were incubated for 24 hours at 37°, while the dermatophytes Trichophyton rubrum, Trichophyton mentagrophytes and Microsporum canis were incubated for five days at 28°. The agar dilution assay was essentially the same as the broth dilution assay except that 1% inoagar was added to the Sabouraud broth.

Candida albicans [2] = assay: MIC in Sabouraud broth (broth dilution); details: 24 h, read-out: Minimum Inhibitory Concentration (MIC)
From the text: as §1

Trichophyton rubrum [3] = assay: MIC in Sabouraud broth (broth dilution); details: 120 h, strain A 22789, five days at 28°, read-out: Minimum Inhibitory Concentration (MIC)
From the text: as §1

Candida tropicalis [4] = assay: MIC in Sabouraud broth (broth dilution); details: strain A 15051, 24 hours at 37°, read-out: Minimum Inhibitory Concentration (MIC)
From the text: as §1

Candida krusei [5] = assay: MIC in Sabouraud broth (broth dilution); details: Pichia kudriavzevii, strain A 15052, 24 hours at 37°, read-out: Minimum Inhibitory Concentration (MIC)
From the text: as §1

Microsporum canis [6] = assay: MIC in Sabouraud broth (broth dilution); details: 120 h, read-out: Minimum Inhibitory Concentration (MIC)
From the text: as §1

[7] = system: Trichophyton mentagrophytes; assay: MIC in Sabouraud broth plus 1% ionagar (agar dilution); details: 120 h, strain A 9870, five days at 28°, read-out: Minimum Inhibitory Concentration (MIC)
From the text: as §1

Candida albicans [8] = assay: as above; details: 24 h, read-out: Minimum Inhibitory Concentration (MIC)
From the text: as §1

Trichophyton rubrum [9] = assay: as above; details: 120 h, strain A 22789, five days at 28°, read-out: Minimum Inhibitory Concentration (MIC)
From the text: as §1

Candida tropicalis [10] = assay: as above; details: strain A 15051, 24 hours at 37°, read-out: Minimum Inhibitory Concentration (MIC)
From the text: as §1

Candida krusei [11] = assay: as above; details: Pichia kudriavzevii, strain A 15052, 24 hours at 37°, read-out: Minimum Inhibitory Concentration (MIC)
From the text: as §1

Microsporum canis [12] = assay: as above; details: 120 h, read-out: Minimum Inhibitory Concentration (MIC)
From the text: as §1

[13] = strain A 15049, 24 hours at 37°
[14] = strain A 9872, five days at 28°
[15] = strain A 22494, five days at 28°

Row | Structure (SMILES) | MIC [1] [µg/mL] | MIC (Candida albicans [2]; strain A 1505, 24 hours at 37°) [µg/mL] | MIC (Candida albicans [2]; strain A 9540, 24 hours at 37°) [µg/mL] | MIC (Candida albicans [2]; [13]) [µg/mL] | MIC (Trichophyton rubrum [3]) [µg/mL] | MIC (Candida tropicalis [4]) [µg/mL] | MIC (Candida krusei [5]) [µg/mL] | MIC (Microsporum canis [6]; [14]) [µg/mL] | MIC (Microsporum canis [6]; [15]) [µg/mL] | MIC [7] [µg/mL] | MIC (Candida albicans [8]; strain A 1505, 24 hours at 37°) [µg/mL] | MIC (Candida albicans [8]; strain A 9540, 24 hours at 37°) [µg/mL] | MIC (Candida albicans [8]; [13]) [µg/mL] | MIC (Trichophyton rubrum [9]) [µg/mL] | MIC (Candida tropicalis [10]) [µg/mL] | MIC (Candida krusei [11]) [µg/mL] | MIC (Microsporum canis [12]; [14]) [µg/mL] | MIC (Microsporum canis [12]; [15]) [µg/mL]
1 | Clc1ccc(CSC(Cn2ccnc2)SCc2ccc(Cl)cc2Cl)c(Cl)c1 [2(g), 1-[2,2-bis(2,4-dichlorobenzylthio)ethyl]-1H-imidazole] | 0.063 (≈ 0.132 µM) | > 16 | > 16 | > 16 | 0.063 (≈ 0.132 µM) | > 16 | > 16 | 0.032 (≈ 0.0669 µM) | 0.063 (≈ 0.132 µM) | – | – | – | – | – | – | – | – | –
2 | Clc1cccc(Cl)c1CSC(Cn1ccnc1)SCc1c(Cl)cccc1Cl.O=C(O)C(=O)O [2(h), 1-[2,2-bis(2,6-dichlorobenzylthio)ethyl]-1H-imidazole hydrogen oxalate] | – | – | – | – | – | – | – | – | – | 1 | 16 | 8 | 16 | 0.5 | 63 | 32 | 1 | 0.25
3 | Cc1ccc(CSC(Cn2ccnc2)SCc2ccc(C)cc2)cc1.Cl [2(j), 1-[2,2-bis(4-methylbenzylthio)ethyl]-1H-imidazole hydrochloride] | 0.063 | 4 | 4 | 4 | 0.063 | > 16 | 8 | 0.063 | 0.063 | – | – | – | – | – | – | – | – | –
4 | CSc1ccc(CSC(Cn2ccnc2)SCc2ccc(SC)cc2)cc1.Cl [2(l), 1-[2,2-bis(4-methylthiobenzylthio)ethyl]-1H-imidazole hydrochloride] | 0.063 | > 16 | > 16 | > 16 | 0.063 | > 16 | 8 | 0.063 | 0.13 | – | – | – | – | – | – | – | – | –
5 | Cl.Clc1ccc(CSC(Cn2ccnc2)SCc2ccc(Cl)s2)s1 [2(p), 1-[2,2-bis(5-chloro-2-thienylmethylthio)ethyl]-1H-imidazole hydrochloride] | – | – | – | – | – | – | – | – | – | 0.5 | 4 | 4 | 4 | 0.5 | 125 | 8 | 0.25 | 0.032
6 | Cl.Clc1ccc(CSC(Cn2ccnc2)SCc2ccc(Cl)cc2)cc1 [Example 1, 1-[2,2-Bis(4-chlorobenzylthio)ethyl]-1H-imidazole Hydrochloride] | 0.032 | 2 | 1 | 2 | 0.063 | > 16 | 0.5 | 0.032 | 0.063 | – | – | – | – | – | – | – | – | –
7 | Cl.Clc1ccc(CSC(Cn2ccnc2)Sc2ccc(Cl)cc2)cc1 (stereo not drawn) [Example 5, 1-[2-(4-Chlorobenzylthio)-2-(4-chlorophenylthio)ethyl]-1H-imidazole Hydrochloride] | – | – | – | – | – | – | – | – | – | 0.063 | 4 | 4 | 4 | 0.25 | 32 | 4 | 0.25 | 0.032
